The text below walks through data of patent US20090247477A1, “Methods of suppressing uv light-induced skin carcinogenesis” (priority 2005, published 2009).

The subject of assay [1] is UVB radiation-induced skin tumors. Briefly: UVB-induced skin carcinogenesis in high-risk mice, dietary treatment. To be noted: vs control. The assay is classed as in vivo, mouse. The protocol: Seeds of broccoli (Brassica oleracea italica, cv. DeCicco) were used to grow sprouts as described in Example 1. Growth was arrested after 3 days by plunging sprouts into boiling water and allowed to boil for ˜30 min. This treatment inactivated the endogenous sprout myrosinase and extracted the glucosinolates. […] The powder was mixed with the mouse diet (powdered AIN 76A) to give the equivalent of 10 μmol (low dose) or 50 μmol (high dose) of glucoraphanin per 3 grams of diet.
Body weights and formation of tumors larger than 1 mm in diameter were determined weekly.
UVB radiation was provided by a bank of UV lamps (FS72T12-UVB-HO, National Biological Corporation, Twinsburg, Ohio) emitting UVB (280-320 nm, 65% of total energy) and UVA (320-375 nm, 35% of total energy). The radiant dose of UVB was quantified with a UVB Daavlin Flex Control Integrating Dosimeter and further calibrated with an IL-1400 radiometer (International Light, Newburyport, Mass.).
The animals were irradiated for 20 weeks on Tuesdays and Fridays with a radiant exposure of 30 mJ/cm^2/session. […]
Tumor volumes were determined by measuring the height, length, and width of each mass that was larger than 1 mm in diameter. The average of the three measurements was used as the diameter and the volume was calculated (v=4πr^3/3). All mice were euthanized on the same day and the size and multiplicity of tumors was determined. […]

Assay [2] deals with glutathione. As to conditions: topical extract containing 1 μmol sulforaphane, 24 h, vs vehicle. From the text:
Female SKH-1 hairless mice (4 weeks old) were obtained from Charles River Breeding Laboratories (Wilmington, Mass.) and were acclimatized in our animal facility for 2 weeks before the start of the experiment. The animals were kept on a 12-h light/12-h dark cycle, 35% humidity, and given free access to water and pelleted AIN 76A diet (Harlan TekLad, free of inducers). All animal experiments were in compliance with the National Institutes of Health Guidelines and were approved by the Johns Hopkins University Animal Care and Use Committee.
The animals were euthanized 24 h later and their dorsal skins were dissected using a rectangular template (2.5×5 cm) and frozen in liquid N2. […] Centrifugation at 14,000 g for 20 min at 4° C. yielded clear supernatant fractions, aliquots of which were used for determination of protein content, enzyme activity, and total glutathione levels as described below for the cell culture experiments.

In assay [3] the test system is PE murine keratinocytes. To be noted: 5 μM for 24 h, UVA 10 J/cm^2, PE cells.
Protocol: Reactive oxygen intermediates generated by the UV radiation were quantified by the fluorescent probe 2′,7′-dichlorodinitrofluorescein and fluorescence intensity was measured (expressed as a ratio of exposed to non-exposed cells).
PE cells (50,000 per well) were seeded into 24-well plates and grown for 48 h. […] On the day of the experiments, after removing the medium, the cells were incubated with 100 μM 2′,7′-dichlorodinitrofluorescein diacetate in 500 μl of fresh medium (Molecular Probes, Eugene, Oreg.) for 30 min. The medium containing the fluorescent probe was then removed, the cells were washed with DPBS, and exposed to UVA radiation (10 J/cm^2) Control cells were kept in the dark. Cells were detached with trypsin, suspended in 2.0 ml of DPBS, and the intensity of fluorescence was determined in cell suspensions at 520 nm with an excitation of 485 nm in 2-ml cuvettes in a Perkin-Elmer LS50 spectrofluorimeter.

Each structure is given as a SMILES string.

Turning to `C[S+]([O-])CCCC/C(=N\OS(=O)(=O)O)S[C@@H]1O[C@H](CO)[C@@H](O)[C@H](O)[C@H]1O` (stereo partly shown) [glucoraphanin], the “inhibition in total tumor volume per mouse” value in assay [1] (high dose) and in assay [1] (low dose) was 70% in each case.

Turning to `C[S+]([O-])CCCCN=C=S` (stereo not shown) [sulforaphane], the “elevation of total glutathione levels in skin” value in assay [2] is given as approximately 15%. For the same compound, in assay [3], the “reduction in reactive oxygen intermediates generated by UV radiation” value is 50%.
